Some test systems named below: HT29 colon; NCI-H23 lung; OVCAR-3 ovarian; SF-295 CNS; SK-MEL-5 melanoma; ACHN renal; BT-549 breast; MDA-MB-435; PC-3 prostate; HS 578T breast; MDA-N.
Common to all, as to test: inhibition of tumour cell growth, NCI panel, 48 h

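Method: 48-hour compound exposure of cells in 96-well plates, five concentrations, linear interpolation of endpoints. GI50 = concentration required for 50% inhibition of growth. TGI: total growth inhibition.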

Consider 24 compounds from PubChem BioAssay (NCI).

As for `CC(=O)Oc1c(OC(C)=O)c(-c2ccc(O)c(O)c2)c(O)c(O)c1-c1ccc(O)cc1`, the TGI in the assay with HT29 colon, in the assay with NCI-H23 lung, with OVCAR-3 ovarian, in the assay on SF-295 CNS and in the assay with SK-MEL-5 melanoma was > 100 µM throughout. The GI50 in the assay on OVCAR-3 ovarian was 59.5 µM.
In the case of `O=C(CCN1CCCC1)Nc1ccc2c(NCCCc3ccccc3)c3ccccc3nc2c1`, the GI50 was 1.42 µM with ACHN renal; 1.61 µM with BT-549 breast; 1.46 µM in the assay on MDA-MB-435; 1.12 µM with NCI-H23 lung; 0.566 µM in the assay on PC-3 prostate; 1.31 µM in the assay with SF-295 CNS. Also, the GI50 with SK-MEL-5 melanoma was 1.61 µM. Further, the TGI with ACHN renal amounted to 2.8 µM; in the assay on BT-549 breast, 3.11 µM; in the assay with MDA-MB-435, 2.82 µM; in the assay with NCI-H23 lung, 2.41 µM; in the assay with PC-3 prostate, 1.94 µM; with SF-295 CNS, 2.59 µM. Further, the TGI in the assay with SK-MEL-5 melanoma was found to be 2.97 µM.
Regarding `O=C(/C=C/c1ccc(Cl)c(Cl)c1)Oc1ccc(/C=C2\CCCCC2=O)cc1`, the TGI in the assay on ACHN renal, with HS 578T breast, in the assay with HT29 colon, with MDA-MB-435, in the assay with MDA-N and in the assay on NCI-H23 lung was > 100 µM in each case. Further, the TGI in the assay with OVCAR-3 ovarian, in the assay on PC-3 prostate, in the assay on SF-295 CNS and in the assay on SK-MEL-5 melanoma was > 100 µM each time.
Turning to `Nc1ncc(Cc2nc3ccccc3s2)s1`, the TGI was > 100 µM in the assay on ACHN renal; 96.4 µM in the assay with HS 578T breast; > 100 µM in the assay with HT29 colon; > 100 µM in the assay with MDA-MB-435; > 100 µM with OVCAR-3 ovarian; > 100 µM in the assay on PC-3 prostate. Also, the TGI in the assay on SF-295 CNS and with SK-MEL-5 melanoma was > 100 µM in each case.
`COc1cc2c(cc1OC)C(Cl)C(c1cc(OC)c(OC)c(OC)c1)=C2Cl` (stereo not drawn): the TGI in the assay on ACHN renal was determined as 28.8 µM; in the assay with HT29 colon, 30.3 µM; in the assay with NCI-H23 lung, 51.8 µM; in the assay on OVCAR-3 ovarian, 31.9 µM; in the assay with SF-295 CNS it was 29.9 µM; with SK-MEL-5 melanoma, 30.5 µM.
As for `COCN1C(=O)[C@@H]2CCCN2C(=O)c2cc([N+](=O)[O-])ccc21`, the TGI with ACHN renal, in the assay on BT-549 breast, in the assay on HS 578T breast, in the assay with HT29 colon, with MDA-MB-435 and in the assay on NCI-H23 lung was > 100 µM throughout. The TGI in the assay on PC-3 prostate, with SF-295 CNS and with SK-MEL-5 melanoma was > 100 µM throughout.
`CC(=O)c1cn(-c2ccc(Cl)cc2)c(=O)c2c(N)n[nH]c12`: the TGI in the assay on ACHN renal, in the assay with BT-549 breast, in the assay on HS 578T breast, in the assay on HT29 colon, in the assay with MDA-MB-435 and in the assay on NCI-H23 lung was > 100 µM in each case. Besides, the TGI in the assay with PC-3 prostate, with SF-295 CNS and with SK-MEL-5 melanoma was > 100 µM each time.
Consider `CCCCCCCCCN1CCC(=O)C(C(=O)OC)C1` (stereo not drawn), for which the TGI amounted to 21 µM in the assay on ACHN renal; 36.6 µM in the assay on HS 578T breast; 22.7 µM with HT29 colon; 28.5 µM in the assay on MDA-MB-435; 29.5 µM with MDA-N; 8.59 µM with NCI-H23 lung. Moreover, the TGI in the assay with OVCAR-3 ovarian was determined as 29.4 µM; with SF-295 CNS, 31.9 µM; in the assay on SK-MEL-5 melanoma, 33 µM.
Turning to `CSCCC(NC(c1ccccc1)c1ccccc1)[P+](=O)O` (stereo not drawn), the TGI with ACHN renal, with BT-549 breast, in the assay with HS 578T breast, in the assay on HT29 colon, in the assay on MDA-MB-435 and with NCI-H23 lung was > 100 µM each time. Also, the TGI with OVCAR-3 ovarian, with PC-3 prostate, in the assay with SF-295 CNS and with SK-MEL-5 melanoma was > 100 µM throughout.
Consider `CC1OC(=O)c2ccccc2NC1=O` (stereo not drawn), for which the TGI in the assay with ACHN renal, in the assay with BT-549 breast, in the assay with HS 578T breast, in the assay with HT29 colon, in the assay on MDA-MB-435 and in the assay on NCI-H23 lung was > 100 µM in each case. Further, the TGI in the assay with OVCAR-3 ovarian, in the assay with PC-3 prostate, in the assay with SF-295 CNS and in the assay on SK-MEL-5 melanoma was > 100 µM in each case.
Turning to `CC(C)(C)OC(=O)N1CCC23CCCC2C(=O)CC=C13` (stereo not drawn), the TGI with ACHN renal, in the assay with BT-549 breast, in the assay with HS 578T breast, with HT29 colon, in the assay with MDA-MB-435 and with NCI-H23 lung was > 100 µM in each case. In addition, the TGI with OVCAR-3 ovarian, in the assay on PC-3 prostate, in the assay with SF-295 CNS and in the assay on SK-MEL-5 melanoma was > 100 µM each time.
Take `CN1CCN(c2ccc3[nH]c(C4=C(O)c5nc(CO)n(C)c5C(=O)C4=O)nc3n2)CC1`: the TGI in the assay with ACHN renal, in the assay on BT-549 breast, with HS 578T breast, in the assay on HT29 colon, with MDA-MB-435 and in the assay on NCI-H23 lung was > 100 µM each time. For the same compound, the TGI in the assay with OVCAR-3 ovarian, with PC-3 prostate and in the assay on SF-295 CNS was > 100 µM in each case.
Take `CSC(=NCCN=C(NS(=O)(=O)c1ccc(Cl)cc1)SC)NS(=O)(=O)c1ccc(Cl)cc1`: the TGI with ACHN renal, with HT29 colon, in the assay on MDA-MB-435, in the assay on MDA-N, in the assay with NCI-H23 lung and in the assay with OVCAR-3 ovarian was > 100 µM in each case. The TGI with PC-3 prostate and with SF-295 CNS was > 100 µM in each case.
Take `Cc1ccc2[nH]c3c(C)c4ccncc4c(C)c3c2c1`: the TGI is 2.28 µM in the assay with ACHN renal; 2.58 µM with HT29 colon; 2.98 µM with NCI-H23 lung; 3.27 µM in the assay with OVCAR-3 ovarian; 2.32 µM with SF-295 CNS; 2.92 µM in the assay on SK-MEL-5 melanoma.
Consider `S=C(Nc1ccc(Br)cn1)NC12CC3CC(CC(C3)C1)C2`, for which the TGI was 56.1 µM with ACHN renal; > 100 µM in the assay with MDA-MB-435; 47.7 µM with MDA-N; 38.9 µM in the assay with NCI-H23 lung; > 100 µM with OVCAR-3 ovarian; 43.2 µM with PC-3 prostate. The compound also registered a TGI in the assay with SF-295 CNS of 49.5 µM.
With `COc1cc(CC2c3cc(OC)c(OC)cc3CCN2C)c(Oc2cc3c(cc2OC)-c2c(OC)c(OC)c(OC)c4c2C(C3)N(C)CC4)cc1OC` (stereo not drawn), the TGI in the assay with ACHN renal was 30.9 µM; in the assay with HT29 colon, > 36.5 µM; in the assay with NCI-H23 lung, 34.9 µM; in the assay with OVCAR-3 ovarian, 28.2 µM; in the assay with SF-295 CNS, 28.8 µM; in the assay on SK-MEL-5 melanoma it was 13.4 µM.
On to `O=C(NCc1ccccc1)c1cnc(Cl)cn1`, for which the TGI in the assay on ACHN renal was 44.1 µM; in the assay on HS 578T breast it was > 100 µM; with HT29 colon it was > 100 µM; with MDA-MB-435, > 100 µM; in the assay with NCI-H23 lung, 87.4 µM; with OVCAR-3 ovarian, > 100 µM. For the same compound, the TGI with SF-295 CNS and in the assay with SK-MEL-5 melanoma was > 100 µM throughout.
Take `CC(C)[Si]1(C(C)C)OCC2OC(n3ccc(=O)[nH]c3=O)C(O)(CO)C2O[Si](C(C)C)(C(C)C)O1` (stereo not drawn): the TGI in the assay on ACHN renal was 30.8 µM; with BT-549 breast it was 30.7 µM; in the assay with HS 578T breast it was 11.4 µM; in the assay on HT29 colon it was 28.7 µM; with MDA-MB-435 it was 31.6 µM; in the assay with NCI-H23 lung, 12.5 µM. For the same compound, the TGI with OVCAR-3 ovarian turned out to be 29.4 µM; in the assay on PC-3 prostate it was 25.9 µM; in the assay with SF-295 CNS, 28.5 µM; in the assay on SK-MEL-5 melanoma, 28.4 µM.
For the compound `COc1cc2c(c(OC)c1OC)C(=O)CC2N` (stereo not drawn), the TGI with ACHN renal, in the assay on BT-549 breast, with HS 578T breast, with HT29 colon, with MDA-MB-435 and in the assay with NCI-H23 lung was > 100 µM in each case. In addition, the TGI in the assay on OVCAR-3 ovarian, in the assay on PC-3 prostate, with SF-295 CNS and with SK-MEL-5 melanoma was > 100 µM each time.
`CCN(CC)CCNc1ccc(C)c2sc3ccc(O)cc3c(=O)c12`: the TGI with ACHN renal was 1.63 µM; with HT29 colon, 3.24 µM; in the assay on NCI-H23 lung, 14 µM; in the assay on OVCAR-3 ovarian it was 4.4 µM; in the assay with SF-295 CNS, 1.98 µM; in the assay on SK-MEL-5 melanoma, 2.3 µM.
Regarding `CN1OC(=O)N(C)C1c1ccccc1` (stereo not drawn), the TGI in the assay with HT29 colon, in the assay on NCI-H23 lung, in the assay with OVCAR-3 ovarian, in the assay with SF-295 CNS and with SK-MEL-5 melanoma was > 100 µM throughout.
Turning to `C=C1C(=O)OC2/C=C(\C)C(O)/C=C\C(C)(O)CC(OC(=O)/C(C)=C/C)C12` (stereo not drawn), the TGI with ACHN renal was 54.1 µM; with HT29 colon, > 100 µM; with NCI-H23 lung, > 100 µM; in the assay on OVCAR-3 ovarian it was 46.2 µM; in the assay with SF-295 CNS, > 100 µM; with SK-MEL-5 melanoma, > 100 µM.
As to `Nc1ccn(C2OC(COP(=O)(O)Oc3ccccc3)C(O)C2O)c(=O)n1` (stereo not drawn), the TGI in the assay with HT29 colon, with NCI-H23 lung, in the assay on OVCAR-3 ovarian, in the assay with SF-295 CNS and with SK-MEL-5 melanoma was > 100 µM in each case.
As to `Cc1nc(-c2nc([N+](=O)[O-])c([N+](=O)[O-])[nH]2)cs1`, the TGI in the assay on ACHN renal, in the assay on HT29 colon, with NCI-H23 lung, with OVCAR-3 ovarian, in the assay with SF-295 CNS and in the assay on SK-MEL-5 melanoma was > 100 µM each time.
